What was measured:
[1] = tested on: healthy poly-drug users; experiment: Subjective effects, ARCI 49-item short form; format: in vivo, humans; set-up: key to ARCI PCAG Dunnet’s Test: “a” (times 0–1 h); “b” (times 0–2 h); “c” (times 0–4 h); not significant (NS); details: for ARCI A (increased energy) AUC0–4h / ARCI A (increased energy) Emax / ARCI BG (intellectual efficiency) AUC0–4h / ARCI BG (intellectual efficiency) Emax / ARCI MBG (euphoria) AUC0–4h / ARCI MBG (euphoria) Emax / ARCI PCAG (sedation) AUC0–4h / ARCI PCAG (sedation) Emax / ARCI A (increased energy) Tmax: oral, methylone 100–300 mg n=8, MDMA 75–100 mg n=6; for ARCI A (increased energy) AUC0–4h / ARCI A (increased energy) Emax / ARCI BG (intellectual efficiency) AUC0–4h / ARCI BG (intellectual efficiency) Emax / ARCI MBG (euphoria) AUC0–4h / ARCI MBG (euphoria) Emax / ARCI PCAG (sedation) AUC0–4h / ARCI PCAG (sedation) Emax: baseline-adjusted, mean ± SD; for ARCI A (increased energy) Tmax: median (min–max); for ARCI A Dunnet’s Test / ARCI BG Dunnet’s Test / ARCI MBG Dunnet’s Test / ARCI PCAG Dunnet’s Test: time points significantly different from baseline
Description: (§1) The study was designed as a non-controlled prospective observational study in a naturalistic setting with methylone and MDMA self-administration. The methodology, including procedures and evaluations, coincides with previous observational–naturalistic studies aimed at evaluating the acute effects of other NPS [38, 39, 40]. Six subjects (5 M, 1 F) self-administered MDMA and 8 subjects (5 M, 3 F) self-administered methylone. Each subject participated only in one session. Participants brought their own substance obtained from an unknown source, which was tested by Energy Control, a harm reduction organization that provides a drug checking service to drug users. Pills containing methylone and MDMA were analyzed by gas chromatography associated with mass spectrometry (GC/MS), a technique that traces the presence of the most frequent drugs of abuse, such as MDMA, cocaine, heroin, amphetamine and methamphetamine, LSD, and multiple NPS (methylone, mephedrone, and other synthetic cathinones, synthetic cannabinoids, tryptamines, among others).
(§2) In both sessions, participants selected the dose of methylone or MDMA according to their previous drug use experience. Doses of methylone could be selected from a range (75–300 mg) that was previously defined according to the consulted literature. The WHO Expert Committee on Drug Dependence (Thirty-Sixth Meeting, Geneva, Switzerland, 16–20 June 2014) established that 60 mg of methylone was the threshold dose and doses over 250 mg were often related to very strong activity. Some users have reported uses of 300 mg of methylone as a common dose [www.erowid.org] (accessed on 15 June 2021). The mean of the selected doses of MDMA was 87.50 mg (3 subjects ingested 75 mg (2 males and 1 female), 3 males 100 mg). In the other study session, methylone doses ranged from 100 to 300 mg, with a mean of 187.50 mg. Based on their dose selection, 1 male ingested 100 mg, 2 subjects 150 mg (1 male and 1 female), 4 subjects 200 mg (2 males and 2 females), and 1 male 300 mg.
(§3) The sessions were conducted in a naturalistic setting. Participants were allowed to talk, read, listen to music, or play games, except during the evaluation times. However, they were asked to refrain from talking about the effects of the substance. All the subjects were evaluated simultaneously at baseline, 1, 2, and 4 h after administration of methylone or MDMA, which occurred approximately at 16:00 h. At each time point, evaluations were followed in a specific order: physiological effects, oral fluid collection, and subjective effects scales and questionnaires.
(§4) Subjective effects were evaluated at baseline, 1, 2, and 4 h after self-administration using visual analogue scales (VAS), the Addiction Research Center Inventory (ARCI), and the Evaluation of Subjective Effects of Substances with Abuse Potential questionnaire (VESSPA-SSE).
The standardized ARCI 49-item short form is a true/false questionnaire used to evaluate the subjective effects of drugs of abuse. This inventory includes five subscales that assess pentobarbital–chlorpromazine–alcohol-like effects (PCAG, sedation), morphine–benzedrine-like effects (MBG, euphoria), lysergic acid diethylamide-like effects (LSD, dysphoria), benzedrine-like effects (BG, intellectual efficiency), and amphetamine-like effects (A, increased energy).
Vital signs (SBP, DBP, and HR) and subjective effects (VAS, ARCI, and VESSPA-SSE) were baseline-adjusted. Maximum effects and the time in which maximum effects appeared were determined, and the area under the curve (AUC0–4h) was calculated with the trapezoidal rule.
Thirdly, to find possible significant changes from baseline, a Dunnett multiple comparison test was conducted to compare each time point with baseline in both drug conditions (0–1 h, 0–2 h, 0–4 h).

[2] = tested on: healthy poly-drug users; experiment: Subjective effects, visual analogue scales (VAS); format: in vivo, humans; set-up: key to VAS stimulated Dunnet’s Test / VAS change in lights Dunnet’s Test / VAS different body feeling Dunnet’s Test / VAS different surrounding Dunnet’s Test / VAS dizziness Dunnet’s Test / VAS headache Dunnet’s Test / VAS face flushing Dunnet’s Test: “a” (times 0–1 h); “b” (times 0–2 h); “c” (times 0–4 h); not significant (NS); details: for Time at which subjective effects in general reached maximum values / VAS change in lights AUC0–4h / VAS change in lights Emax / VAS content AUC0–4h / VAS content Emax / VAS different body feeling AUC0–4h / VAS different body feeling Emax / VAS different surrounding AUC0–4h / VAS different surrounding Emax / VAS dizziness AUC0–4h / VAS dizziness Emax / VAS face flushing AUC0–4h / VAS face flushing Emax / VAS good effects AUC0–4h / VAS good effects Emax / VAS headache AUC0–4h / VAS headache Emax / VAS high AUC0–4h / VAS high Emax / VAS intensity AUC0–4h / VAS intensity Emax / VAS stimulated AUC0–4h / VAS stimulated Emax / VAS change in lights Tmax: oral; for Time at which subjective effects in general reached maximum values: VAS, ARCI, VESSPA-SSE overall; for VAS change in lights AUC0–4h / VAS change in lights Emax / VAS content AUC0–4h / VAS content Emax / VAS different body feeling AUC0–4h / VAS different body feeling Emax / VAS different surrounding AUC0–4h / VAS different surrounding Emax / VAS dizziness AUC0–4h / VAS dizziness Emax / VAS face flushing AUC0–4h / VAS face flushing Emax / VAS good effects AUC0–4h / VAS good effects Emax / VAS headache AUC0–4h / VAS headache Emax / VAS high AUC0–4h / VAS high Emax / VAS intensity AUC0–4h / VAS intensity Emax / VAS stimulated AUC0–4h / VAS stimulated Emax / VAS change in lights Tmax: methylone 100–300 mg n=8, MDMA 75–100 mg n=6; for VAS change in lights AUC0–4h / VAS change in lights Emax / VAS content AUC0–4h / VAS content Emax / VAS different body feeling AUC0–4h / VAS different body feeling Emax / VAS different surrounding AUC0–4h / VAS different surrounding Emax / VAS dizziness AUC0–4h / VAS dizziness Emax / VAS face flushing AUC0–4h / VAS face flushing Emax / VAS good effects AUC0–4h / VAS good effects Emax / VAS headache AUC0–4h / VAS headache Emax / VAS high AUC0–4h / VAS high Emax / VAS intensity AUC0–4h / VAS intensity Emax / VAS stimulated AUC0–4h / VAS stimulated Emax: baseline-adjusted, mean ± SD; for VAS change in lights Tmax: median (min–max); for VAS change in lights Dunnet’s Test / VAS content Dunnet’s Test / VAS different body feeling Dunnet’s Test / VAS different surrounding Dunnet’s Test / VAS dizziness Dunnet’s Test / VAS face flushing Dunnet’s Test / VAS good effects Dunnet’s Test / VAS headache Dunnet’s Test / VAS high Dunnet’s Test / VAS intensity Dunnet’s Test / VAS stimulated Dunnet’s Test: time points significantly different from baseline
Description: as §1, §2, §3, §4
Visual analogue scales (100 mm, from “not at all” to “extremely”) contained 30 items that subjects were asked to rate, such as: intensity, stimulated, high, good effects, liking, happiness, drunkenness, changes in colors, changes in shapes, changes in lights, hallucinations (seeing lights or spots), hallucinations (seeing of animals), changes in hearing, hallucinations (hearing sounds or voices), different or changed body feeling, unreal body feeling, changes in distances, different surroundings, unreal surroundings, confusion, fear, depression or sadness, drowsiness, dizziness, bad effects, headache, sickness, vertigo, shortness of breath, and face flushing.
Vital signs (SBP, DBP, and HR) and subjective effects (VAS, ARCI, and VESSPA-SSE) were baseline-adjusted. Maximum effects and the time in which maximum effects appeared were determined, and the area under the curve (AUC0–4h) was calculated with the trapezoidal rule. […]

CNC(C)Cc1ccc2c(c1)OCO2 (stereo not drawn) [MDMA, 3,4-methylenedioxymethamphetamine]
ARCI A (increased energy) AUC0–4h [1]: 15.75 ± 2.79
ARCI A (increased energy) Emax [1]: 5.83 ± 1.17 score
ARCI BG (intellectual efficiency) AUC0–4h [1]: 9.83 ± 6.38
ARCI BG (intellectual efficiency) Emax [1]: 4.67 ± 2.25 score
ARCI MBG (euphoria) AUC0–4h [1]: 20.83 ±10.05
ARCI MBG (euphoria) Emax [1]: 8.0 ± 3.35 score
ARCI PCAG (sedation) AUC0–4h [1]: −1.58 ± 8.39
ARCI PCAG (sedation) Emax [1]: −0.83 ± 3.54 score
ARCI A (increased energy) Tmax [1]: 1.0 (1.0–2.0) h
ARCI A Dunnet’s Test [1]: a, b, c
ARCI BG Dunnet’s Test [1]: a, b
ARCI MBG Dunnet’s Test [1]: a, b
ARCI PCAG Dunnet’s Test [1]: NS
Time at which subjective effects in general reached maximum values [2]: 1.5 h
VAS change in lights AUC0–4h [2]: 40.00 ± 53.35
VAS change in lights Emax [2]: 20.00 ± 25.11 mm
VAS content AUC0–4h [2]: 186.25 ± 52.39
VAS content Emax [2]: 74.50 ± 18.96 mm
VAS different body feeling AUC0–4h [2]: 95.25 ± 53.40
VAS different body feeling Emax [2]: 50.33 ± 22.59 mm
VAS different surrounding AUC0–4h [2]: 27.33 ± 39.71
VAS different surrounding Emax [2]: 17.33 ± 17.68 mm
VAS dizziness AUC0–4h [2]: 20.17 ± 20.68
VAS dizziness Emax [2]: 13.00 ± 9.84 mm
VAS face flushing AUC0–4h [2]: 89.33 ± 58.31
VAS face flushing Emax [2]: 45.00 ± 22.74 mm
VAS good effects AUC0–4h [2]: 167.67 ± 54.01
VAS good effects Emax [2]: 67.83 ± 16.51 mm
VAS headache AUC0–4h [2]: 10.58 ± 18.86
VAS headache Emax [2]: 5.83 ± 7.68 mm
VAS high AUC0–4h [2]: 136.92 ± 41.05
VAS high Emax [2]: 60.17 ± 14.96 mm
VAS intensity AUC0–4h [2]: 111.33 ± 36.34
VAS intensity Emax [2]: 47 ± 11.19 mm
VAS stimulated AUC0–4h [2]: 113.17 ± 40.92
VAS stimulated Emax [2]: 50.17 ± 17.12 mm
VAS change in lights Tmax [2]: 1.5 (0.0–4.0) h
VAS change in lights Dunnet’s Test [2]: NS
VAS content Dunnet’s Test [2]: a, b, c
VAS different body feeling Dunnet’s Test [2]: a
VAS different surrounding Dunnet’s Test [2]: a
VAS dizziness Dunnet’s Test [2]: NS
VAS face flushing Dunnet’s Test [2]: a
VAS good effects Dunnet’s Test [2]: a, b
VAS headache Dunnet’s Test [2]: NS
VAS high Dunnet’s Test [2]: a, b
VAS intensity Dunnet’s Test [2]: a, b
VAS stimulated Dunnet’s Test [2]: a, b

CNC(C)C(=O)c1ccc2c(c1)OCO2 (stereo not drawn) [Methylone, 3,4-methylenedioxymethcathinone]
ARCI A (increased energy) AUC0–4h [1]: 12.56 ± 7.77
ARCI A (increased energy) Emax [1]: 5.38 ± 3.29 score
ARCI BG (intellectual efficiency) AUC0–4h [1]: 10.06 ± 7.83
ARCI BG (intellectual efficiency) Emax [1]: 4.63 ± 3.34 score
ARCI MBG (euphoria) AUC0–4h [1]: 16.63 ± 13.21
ARCI MBG (euphoria) Emax [1]: 7.5 ± 5.13 score
ARCI PCAG (sedation) AUC0–4h [1]: −2.75 ± 3.73
ARCI PCAG (sedation) Emax [1]: −1.25 ± 1.58 score
ARCI A (increased energy) Tmax [1]: 1.5 (1.0–4.0) h
ARCI A Dunnet’s Test [1]: a, b
ARCI BG Dunnet’s Test [1]: a, b
ARCI MBG Dunnet’s Test [1]: a, b
ARCI PCAG Dunnet’s Test [1]: a
Time at which subjective effects in general reached maximum values [2]: 2 h
VAS change in lights AUC0–4h [2]: 10.88 ± 11.85
VAS change in lights Emax [2]: 4.88 ± 4.82 mm
VAS content AUC0–4h [2]: 80.06 ± 82.59
VAS content Emax [2]: 35.25 ± 30.38 mm
VAS different body feeling AUC0–4h [2]: 44.13 ± 43.86
VAS different body feeling Emax [2]: 22.25 ± 20.60 mm
VAS different surrounding AUC0–4h [2]: 5.69 ± 10.39
VAS different surrounding Emax [2]: 4.38 ± 7.50 mm
VAS dizziness AUC0–4h [2]: 2.63 ± 3.02
VAS dizziness Emax [2]: 2.13 ± 2.53 mm
VAS face flushing AUC0–4h [2]: 64.50 ± 56.75
VAS face flushing Emax [2]: 31.25 ± 21.91 mm
VAS good effects AUC0–4h [2]: 74.06 ± 67.08
VAS good effects Emax [2]: 35.63 ± 30.63 mm
VAS headache AUC0–4h [2]: 23.63 ± 28.94
VAS headache Emax [2]: 20.25 ± 28.93 mm
VAS high AUC0–4h [2]: 55.06 ± 53.54
VAS high Emax [2]: 24.0 ± 21.28 mm
VAS intensity AUC0–4h [2]: 45.88 ± 43.66
VAS intensity Emax [2]: 20.0 ± 16.48 mm
VAS stimulated AUC0–4h [2]: 50.56 ± 47.38
VAS stimulated Emax [2]: 22.50 ± 18.81 mm
VAS change in lights Tmax [2]: 1.0 (0.0–2.0) h
VAS change in lights Dunnet’s Test [2]: a, b
VAS content Dunnet’s Test [2]: a, b
VAS different body feeling Dunnet’s Test [2]: NS
VAS different surrounding Dunnet’s Test [2]: NS
VAS dizziness Dunnet’s Test [2]: a
VAS face flushing Dunnet’s Test [2]: b
VAS good effects Dunnet’s Test [2]: a, b
VAS headache Dunnet’s Test [2]: c
VAS high Dunnet’s Test [2]: a, b
VAS intensity Dunnet’s Test [2]: a, b
VAS stimulated Dunnet’s Test [2]: b

From publication PMC8389614, “A Comparison of Acute Pharmacological Effects of Methylone and MDMA Administration in Humans and Oral Fluid Concentrations as Biomarkers of Exposure” (Biology, 2021)
